Data reported in patent US9668480B2, “Method for treating plants against fungi resistant to fungicides using carboxamide or thiocarboxamide derivatives” (priority 2012, dated 2017).
Where “and” joins values, the source holds several entries; their conditions need not be identical. Equal entries are not always repeated.

How the values were obtained:
[1] = target: succinate-ubiquinone redutase (SDH) of mitochondria from the 3884 strain (SDHB P225H substitution) (Botrytis cinerea, UniProt A0A384J5E4+D2IH01+D2IH03, P225H); assay: SDH activity of extracted mitochondria by DCPIP reduction at 595 nm, P225H mutant; type: biochemical; conditions: for PI50 P225H3884: mitochondria of 3884 strain, 20 min preincubation, -log 10 of concentration inhibiting DCPIP reduction by 50%; for Classification: pI50 on P225H 3884 mitochondria compared to WT
Experimental: (§1) Compounds activity was investigated at the level of the mitochondrial target and compared to other SDH inhibitors.
(§2) Mitochondria were extracted according to Cramer et al. (1983) Analytical biochemistry, 128, 384-392 and the mycelium prepared according to Fritz et al., (1993). Agronomie 13, 225-230 except that spore's incubation was pursued for 48 hours. SDH activity was measured by following DCPIP (2,6-dichlorphenol-indophenol) reduction at 595 nm overtime. To test SDH inhibitors, mitochondria were incubated with test compounds for 20 min prior the initiation of the reaction.

[2] = target: succinate-ubiquinone redutase (SDH) of mitochondria from Bo47 WT strain (Botrytis cinerea, UniProt A0A384J5E4+D2IH01+D2IH03); assay: SDH activity of extracted mitochondria by DCPIP reduction at 595 nm, wild type; type: biochemical; conditions: 20 min preincubation, -log 10 of concentration inhibiting DCPIP reduction by 50%
Experimental: as §1, §2

[3] = test system: Botrytis cinerea boscalid-resistant strains with SDHB_P225H, F substitutions; assay: Sensitivity assay in microtiter plate, resistance factor of boscalid-resistant field strains versus Bo47 WT; type: cell-based
Experimental: Four to five strains with SDHB_P225H, F substitutions were retained for subsequent sensitivity assays in microtiter plate. IC50 of test compounds were determined and resistance factors (RF) calculated as the ratio of IC50 mutant/IC50 WT (Bo47). […] Strains giving a RF below 10 were considered sensitive, moderately resistant when RF was comprised between 10 and 50, resistant above 50.

[4] = mutation P225F, BOTRCI strain 08BC1554
[5] = mutation P225F, BOTRCI strain 08BC1557
[6] = mutation P225F, BOTRCI strain 08BC1558
[7] = mutation P225F, BOTRCI strain 09BC2615
[8] = mutation P225H, BOTRCI strain 09BC2640
[9] = mutation P225H, BOTRCI strain 09BC2648
[10] = mutation P225H, BOTRCI strain 09BC2649

succinate-ubiquinone redutase (SDH) of mitochondria from Bo47 WT strain, sequence (A0A384K456 entry or part of it): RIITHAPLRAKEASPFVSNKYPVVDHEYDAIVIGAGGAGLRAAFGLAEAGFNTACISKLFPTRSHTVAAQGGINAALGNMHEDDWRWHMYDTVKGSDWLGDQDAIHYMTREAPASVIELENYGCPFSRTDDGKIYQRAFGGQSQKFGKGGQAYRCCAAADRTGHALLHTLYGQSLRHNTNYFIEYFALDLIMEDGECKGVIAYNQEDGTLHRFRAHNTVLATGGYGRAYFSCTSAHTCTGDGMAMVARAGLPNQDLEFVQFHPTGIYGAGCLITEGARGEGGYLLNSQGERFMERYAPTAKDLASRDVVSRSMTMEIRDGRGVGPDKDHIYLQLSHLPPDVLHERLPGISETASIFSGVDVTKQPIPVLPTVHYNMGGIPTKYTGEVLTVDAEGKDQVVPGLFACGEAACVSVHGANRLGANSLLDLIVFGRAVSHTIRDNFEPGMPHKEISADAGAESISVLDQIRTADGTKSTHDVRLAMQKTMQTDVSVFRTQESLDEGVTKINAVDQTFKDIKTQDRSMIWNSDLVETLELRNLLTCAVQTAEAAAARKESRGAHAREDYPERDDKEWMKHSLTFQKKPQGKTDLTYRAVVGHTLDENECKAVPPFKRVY
succinate-ubiquinone redutase (SDH) of mitochondria from Bo47 WT strain, sequence (D2IH03 entry or part of it): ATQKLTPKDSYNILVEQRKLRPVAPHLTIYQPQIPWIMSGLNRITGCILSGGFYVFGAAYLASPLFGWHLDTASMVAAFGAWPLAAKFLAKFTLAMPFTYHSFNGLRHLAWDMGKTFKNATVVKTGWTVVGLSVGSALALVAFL
succinate-ubiquinone redutase (SDH) of mitochondria from Bo47 WT strain, sequence (A0A384J5E4 entry or part of it): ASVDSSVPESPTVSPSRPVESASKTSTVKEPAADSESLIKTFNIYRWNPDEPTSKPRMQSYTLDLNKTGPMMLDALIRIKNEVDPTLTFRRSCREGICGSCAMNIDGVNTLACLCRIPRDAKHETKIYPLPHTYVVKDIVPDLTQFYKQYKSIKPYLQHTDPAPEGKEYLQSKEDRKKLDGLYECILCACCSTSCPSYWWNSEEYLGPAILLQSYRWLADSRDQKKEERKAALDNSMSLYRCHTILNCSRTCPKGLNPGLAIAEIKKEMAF
succinate-ubiquinone redutase (SDH) of mitochondria from Bo47 WT strain, sequence (D2IH01 entry or part of it): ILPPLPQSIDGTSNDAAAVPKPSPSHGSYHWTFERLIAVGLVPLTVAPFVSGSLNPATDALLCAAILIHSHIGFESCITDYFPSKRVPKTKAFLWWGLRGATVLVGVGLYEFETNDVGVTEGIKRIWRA
succinate-ubiquinone redutase (SDH) of mitochondria from the 3884 strain (SDHB P225H substitution), sequence (A0A384J5E4 30-300, stated change not applied): as the sequence (A0A384J5E4 entry or part of it) above
succinate-ubiquinone redutase (SDH) of mitochondria from the 3884 strain (SDHB P225H substitution), sequence (D2IH03 46-189, stated change not applied): as the sequence (D2IH03 entry or part of it) above
succinate-ubiquinone redutase (SDH) of mitochondria from the 3884 strain (SDHB P225H substitution), sequence (D2IH01 64-192, stated change not applied): as the sequence (D2IH01 entry or part of it) above
succinate-ubiquinone redutase (SDH) of mitochondria from the 3884 strain (SDHB P225H substitution), sequence (A0A384K456 34-647 partner): as the sequence (A0A384K456 entry or part of it) above

Row | Structure (SMILES) | PI50 P225H3884 [1] | Classification [1] | PI50 Bo47 (Wild type) [2] | resistance factor (RF), ratio of IC50 mutant/IC50 WT (Bo47) [3, 4] | resistance factor (RF), ratio of IC50 mutant/IC50 WT (Bo47) [3, 5] | resistance factor (RF), ratio of IC50 mutant/IC50 WT (Bo47) [3, 6] | resistance factor (RF), ratio of IC50 mutant/IC50 WT (Bo47) [3, 7] | resistance factor (RF), ratio of IC50 mutant/IC50 WT (Bo47) [3, 8] | resistance factor (RF), ratio of IC50 mutant/IC50 WT (Bo47) [3, 9] | resistance factor (RF), ratio of IC50 mutant/IC50 WT (Bo47) [3, 10] | resistance factor (RF), ratio of IC50 mutant/IC50 WT (Bo47) ([3]; mutation P225H, BOTRCI strain 09BC2652) | sensitivity class of strains by RF ([3]; strains harboring P225H and F substitutions)
1 | Cn1cc(C(=O)Nc2ccccc2-c2cc(F)c(F)c(F)c2)c(C(F)F)n1 [Fluxapyroxad] | 6.2 | C (Classification C pI50 decrease superior to 0.6 compared to WT) | 8.0 | 197.2 | 135.6 | 131.5 | 89.1 | 103.0 | 127.9 | 134.2 | 104.7 | –
2 | CC(C)C1C2CCC1c1c(NC(=O)c3cn(C)nc3C(F)F)cccc12 (stereo not shown) [Isopyrazam] | 7.2 | C (Classification C pI50 decrease superior to 0.6 compared to WT) | 8 and 8.2 | 48.4 | 42.9 | 37.9 | 32.8 | 19.7 | 25.1 | 30.7 | – | moderately resistant (moderately resistant when RF was comprised between 10 and 50)
